# Assay results taken from patent publication US20240215583A1, “PLANT BIOLOGIC INCLUDING PYRROLOQUINOLINE QUINONE (PQQ)” (Dakota Bio LLC, priority 2022, published 2024).
# Assay: physchem
# Type: physicochemical
# Conditions: 25 °C, water
# Excerpt: For instance, it has been observed that PQQ can be difficult to dissolve in liquid mixtures. […] In most cases, rather than dissolving, PQQ is initially suspended within a liquid solution, but the PQQ later settles out of this suspension. Once settled, the PQQ generally becomes ineffective and is inaccessible for a plant to uptake. For example, the PQQ quickly settles out of suspension onto the bottom of any storage container which in turn inhibits the spraying or otherwise applying the PQQ onto the plants and/or soil. This inability for PQQ to remain dissolved and/or suspended is exacerbated when out in commercial agricultural fields, because the solution is typically kept in large drums or other large containers that are difficult to agitate or otherwise move so as to maintain the suspension. Moreover, there is currently no commercially practical way to dissolve PQQ in a liquid mixture to mass produce a product useful in agricultural and/or horticultural situations (i.e., growing of ornamental plants).
smiles,measurement,value
"O=C(O)c1cc(C(=O)O)c2c(n1)C(=O)C(=O)c1cc(C(=O)O)[nH]c1-2 [PQQ, 4,5-Dioxo-4,5-dihydro-1H-pyrrolo[2,3-f]quinoline-2,7,9-tricarboxylic acid]",solubility,~212 µg/mL
